Experimental data: article PMC5218480 (PLoS ONE, 2017)

System: MV-4-11 cells
Assay: Gene expression microarray analysis (Affymetrix PrimeView) and GSEA
Assay type: cell-based, human
Parameters: RFU PODN (11730768_x_at) / Fold change /veh PODN (11730768_x_at) / RFU LINC00158 (11744669_a_at) / Fold change /veh LINC00158 (11744669_a_at) / RFU DUSP10 (11751237_a_at) / Fold change /veh DUSP10 (11751237_a_at) / RFU ID3 (11757404_x_at) / Fold change /veh ID3 (11757404_x_at) / RFU PLEKHG5 (11737974_s_at) / Fold change /veh PLEKHG5 (11737974_s_at) / RFU LRRC4B (11730491_at) / Fold change /veh LRRC4B (11730491_at) / RFU GIMAP4 (11747438_a_at) / Fold change /veh GIMAP4 (11747438_a_at) / RFU KRT8 (11758183_x_at) / Fold change /veh KRT8 (11758183_x_at) / RFU CNN1 (11734310_a_at) / Fold change /veh CNN1 (11734310_a_at) / RFU VPS37D (11726825_at) / Fold change /veh VPS37D (11726825_at) / RFU C10orf10 (11716522_x_at) / Fold change /veh C10orf10 (11716522_x_at) / RFU KIR2DL2 /// KIR2DL4 /// KIR2DL5A /// KIR2DL5B /// KIR2DS1 /// KIR2DS2 /// KIR2DS3 /// KIR2DS4 /// KIR3DL3 /// KIR3DL3 /// KIR3DS1 (11738374_at) / Fold change /veh KIR2DL2 /// KIR2DL4 /// KIR2DL5A /// KIR2DL5B /// KIR2DS1 /// KIR2DS2 /// KIR2DS3 /// KIR2DS4 /// KIR3DL3 /// KIR3DL3 /// KIR3DS1 (11738374_at) / RFU C1QL1 (11718748_at) / Fold change /veh C1QL1 (11718748_at) / RFU TMPRSS4 (11747572_a_at) / Fold change /veh TMPRSS4 (11747572_a_at) / RFU HAMP (11756126_x_at) / Fold change /veh HAMP (11756126_x_at) / RFU RNFT2 (11725882_a_at) / Fold change /veh RNFT2 (11725882_a_at) / RFU NR4A2 (11747474_a_at) / Fold change /veh NR4A2 (11747474_a_at) / RFU ABCC12 (11746883_a_at) / Fold change /veh ABCC12 (11746883_a_at) / RFU TMEM136 (11760407_x_at) / Fold change /veh TMEM136 (11760407_x_at) / RFU CLDN22 /// WWC2 (11732394_at) / Fold change /veh CLDN22 /// WWC2 (11732394_at) / RFU HLA-DPB1 (11760878_x_at) / Fold change /veh HLA-DPB1 (11760878_x_at) / RFU SPINT1 (11716480_a_at) / Fold change /veh SPINT1 (11716480_a_at) / RFU GAP43 (11754022_s_at) / Fold change /veh GAP43 (11754022_s_at) / RFU A4GNT (11735810_at) / Fold change /veh A4GNT (11735810_at) / RFU PRB3 (11715151_x_at) / Fold change /veh PRB3 (11715151_x_at) / RFU TUBB4B (11761932_at) / Fold change /veh TUBB4B (11761932_at) / RFU CAPN14 (11732068_a_at) / Fold change /veh CAPN14 (11732068_a_at) / RFU TMCC2 (11721928_a_at) / Fold change /veh TMCC2 (11721928_a_at) / RFU IRGQ (11745062_a_at) / Fold change /veh IRGQ (11745062_a_at) / RFU FAM174B (11720279_a_at) / Fold change /veh FAM174B (11720279_a_at) / RFU TMPRSS4 (11748680_a_at) / Fold change /veh TMPRSS4 (11748680_a_at) / RFU FAM212B (11763350_a_at) / Fold change /veh FAM212B (11763350_a_at) / RFU PLEKHG5 (11743358_a_at) / Fold change /veh PLEKHG5 (11743358_a_at) / RFU ZSCAN30 (11745921_a_at) / Fold change /veh ZSCAN30 (11745921_a_at) / RFU CMKLR1 (11741424_a_at) / Fold change /veh CMKLR1 (11741424_a_at) / RFU LOC101060620 /// MAPK8IP1 (11723275_at) / Fold change /veh LOC101060620 /// MAPK8IP1 (11723275_at) / RFU SPTSSB (11747773_x_at) / Fold change /veh SPTSSB (11747773_x_at) / RFU PRSS12 (11739890_at) / Fold change /veh PRSS12 (11739890_at) / RFU BIN1 (11741810_x_at) / Fold change /veh BIN1 (11741810_x_at) / RFU WNT11 (11732464_a_at) / Fold change /veh WNT11 (11732464_a_at) / RFU C10orf10 (11716521_a_at) / Fold change /veh C10orf10 (11716521_a_at) / RFU C5orf56 (11738089_at) / Fold change /veh C5orf56 (11738089_at) / RFU CYB561 (11721691_x_at) / Fold change /veh CYB561 (11721691_x_at) / RFU ANKRD19P (11752326_a_at) / Fold change /veh ANKRD19P (11752326_a_at) / RFU OR2T12 /// OR2T33 /// OR2T8 (11738714_s_at) / Fold change /veh OR2T12 /// OR2T33 /// OR2T8 (11738714_s_at) / RFU VCAN (11748164_a_at) / Fold change /veh VCAN (11748164_a_at) / RFU JSRP1 (11732532_at) / Fold change /veh JSRP1 (11732532_at) / RFU KRTAP10-11 (11738290_x_at) / Fold change /veh KRTAP10-11 (11738290_x_at) / RFU MYO3A (11730013_a_at) / Fold change /veh MYO3A (11730013_a_at) / RFU EBF3 (11725865_a_at) / Fold change /veh EBF3 (11725865_a_at) / RFU CAMK2N1 (11719241_x_at) / Fold change /veh CAMK2N1 (11719241_x_at) / RFU C5orf56 (11738088_a_at) / Fold change /veh C5orf56 (11738088_a_at) / RFU OLFML3 (11715873_a_at) / Fold change /veh OLFML3 (11715873_a_at) / RFU LOC100653217 /// NTM (11731650_a_at) / Fold change /veh LOC100653217 /// NTM (11731650_a_at) / RFU MAPK11 (11762145_a_at) / Fold change /veh MAPK11 (11762145_a_at) / RFU FIZ1 (11724087_x_at) / Fold change /veh FIZ1 (11724087_x_at) / RFU OASL (11726364_x_at) / Fold change /veh OASL (11726364_x_at) / RFU SOX15 (11748057_x_at) / Fold change /veh SOX15 (11748057_x_at) / RFU CD79A (11719716_a_at) / Fold change /veh CD79A (11719716_a_at) / RFU HIST1H1D (11736915_at) / Fold change /veh HIST1H1D (11736915_at) / RFU CASKIN2 (11723855_a_at) / Fold change /veh CASKIN2 (11723855_a_at) / RFU LOC730098 (11760151_x_at) / Fold change /veh LOC730098 (11760151_x_at) / RFU OR4N2 (11742367_at) / Fold change /veh OR4N2 (11742367_at) / RFU PRRT2 (11749266_a_at) / Fold change /veh PRRT2 (11749266_a_at) / RFU SNX32 (11753110_a_at) / Fold change /veh SNX32 (11753110_a_at) / RFU CDHR5 (11726645_a_at) / Fold change /veh CDHR5 (11726645_a_at) / RFU RCAN1 (11760418_a_at) / Fold change /veh RCAN1 (11760418_a_at) / RFU FAM167A (11723789_a_at) / Fold change /veh FAM167A (11723789_a_at) / RFU FAM26E (11764081_at) / Fold change /veh FAM26E (11764081_at) / RFU ISYNA1 (11749810_s_at) / Fold change /veh ISYNA1 (11749810_s_at) / RFU ACY1 (11761880_at) / Fold change /veh ACY1 (11761880_at) / RFU 11764098_at / Fold change /veh 11764098_at / RFU SAMD14 (11745864_x_at) / Fold change /veh SAMD14 (11745864_x_at) / RFU NPB (11741838_a_at) / Fold change /veh NPB (11741838_a_at) / RFU TMPRSS6 (11731388_a_at) / Fold change /veh TMPRSS6 (11731388_a_at) / RFU KRTAP10-2 (11738614_at) / Fold change /veh KRTAP10-2 (11738614_at) / RFU ARHGAP8 /// PRR5-ARHGAP8 (11727945_x_at) / Fold change /veh ARHGAP8 /// PRR5-ARHGAP8 (11727945_x_at) / RFU KRTAP5-7 /// NADSYN1 (11734609_at) / Fold change /veh KRTAP5-7 /// NADSYN1 (11734609_at) / RFU RASL12 (11751679_a_at) / Fold change /veh RASL12 (11751679_a_at) / RFU CDKN2B (11736163_a_at) / Fold change /veh CDKN2B (11736163_a_at) / RFU PRF1 (11729649_at) / Fold change /veh PRF1 (11729649_at) / RFU, ZNF638 /// ZNF638-IT1 / Fold change vs veh, ZNF638 /// ZNF638-IT1 / RFU, PANK3 / Fold change vs veh, PANK3 / RFU, SH3YL1 / Fold change vs veh, SH3YL1 / RFU, ZEB2 / Fold change vs veh, ZEB2 / RFU, NRIP1 / Fold change vs veh, NRIP1 / RFU, PTTG1IP / Fold change vs veh, PTTG1IP / RFU, CAPN2 / Fold change vs veh, CAPN2 / RFU, MED14 / Fold change vs veh, MED14 / RFU, SNORA58 / Fold change vs veh, SNORA58 / RFU, C1orf63 / Fold change vs veh, C1orf63 / RFU, LRRFIP1 / Fold change vs veh, LRRFIP1 / RFU, NDUFAF7 / Fold change vs veh, NDUFAF7 / RFU, SLC12A2 / Fold change vs veh, SLC12A2 / RFU, IBTK / Fold change vs veh, IBTK / RFU, ESF1 / Fold change vs veh, ESF1 / Fold change vs veh, TMEM50B / RFU, TAOK1 / Fold change vs veh, TAOK1 / RFU, ACBD3 / Fold change vs veh, ACBD3 / RFU, TMA16 / Fold change vs veh, TMA16 / RFU, RWDD3 / Fold change vs veh, RWDD3 / RFU, BCAT1 / Fold change vs veh, BCAT1 / RFU, EDEM3 / Fold change vs veh, EDEM3 / RFU, TMEM33 / Fold change vs veh, TMEM33 / RFU, WDR75 / Fold change vs veh, WDR75 / RFU, AHCTF1 / Fold change vs veh, AHCTF1 / RFU, TFRC / Fold change vs veh, TFRC / RFU, ZDHHC17 / Fold change vs veh, ZDHHC17 / RFU, NOM1 / Fold change vs veh, NOM1 / RFU, ARL8B / Fold change vs veh, ARL8B / RFU, ZBTB11 / Fold change vs veh, ZBTB11 / RFU, TAMM41 / Fold change vs veh, TAMM41 / RFU, KIAA1704 /// LOC100996395 / Fold change vs veh, KIAA1704 /// LOC100996395 / RFU, ING1 / Fold change vs veh, ING1 / RFU, TRMT61B / Fold change vs veh, TRMT61B / RFU, FUBP3 / Fold change vs veh, FUBP3 / RFU, TP53 / Fold change vs veh, TP53 / RFU, TNKS2 / Fold change vs veh, TNKS2 / RFU, ZFP14 / Fold change vs veh, ZFP14 / RFU, ACTR2 / Fold change vs veh, ACTR2 / RFU, PPP3R1 / Fold change vs veh, PPP3R1 / RFU, PIK3R1 / Fold change vs veh, PIK3R1 / RFU, HNRNPA1 / Fold change vs veh, HNRNPA1 / RFU, RNF170 / Fold change vs veh, RNF170 / RFU, ZNF28 / Fold change vs veh, ZNF28 / RFU, RNGTT / Fold change vs veh, RNGTT / RFU, OGT / Fold change vs veh, OGT / RFU, BRD1 / Fold change vs veh, BRD1 / RFU, MARS / Fold change vs veh, MARS / RFU, ZNF655 / Fold change vs veh, ZNF655 / RFU, FAHD1 / Fold change vs veh, FAHD1 / RFU, BDP1 / Fold change vs veh, BDP1 / RFU, LRRCC1 / Fold change vs veh, LRRCC1 / RFU, ARID1A / Fold change vs veh, ARID1A / RFU, ZNF146 / Fold change vs veh, ZNF146 / RFU, ZNF330 / Fold change vs veh, ZNF330 / RFU, GPN3 / Fold change vs veh, GPN3 / RFU, C9orf123 / Fold change vs veh, C9orf123 / RFU, N4BP2L2 / Fold change vs veh, N4BP2L2 / RFU, ARFIP1 / Fold change vs veh, ARFIP1 / RFU, FAM179B / Fold change vs veh, FAM179B / RFU, BCL10 / Fold change vs veh, BCL10 / RFU, UHRF1BP1L / Fold change vs veh, UHRF1BP1L / RFU, BET1 / Fold change vs veh, BET1 / RFU, CNOT2 / Fold change vs veh, CNOT2 / RFU, ZNF268 / Fold change vs veh, ZNF268 / Fold change vs veh, ZNF507 / RFU, DGCR2 / Fold change vs veh, DGCR2 / RFU, WDSUB1 / Fold change vs veh, WDSUB1 / Fold change vs veh, HSP90B1 /// MIR3652 / RFU, ADSS / Fold change vs veh, ADSS / RFU, GK / Fold change vs veh, GK / RFU, ZNF148 / Fold change vs veh, ZNF148 / RFU, TAF9 / Fold change vs veh, TAF9 / RFU, SLC1A5 / Fold change vs veh, SLC1A5 / RFU, SLMO2 / Fold change vs veh, SLMO2 / RFU, ABCC4 / Fold change vs veh, ABCC4 / RFU, LOC101060439 /// RAP1B / Fold change vs veh, LOC101060439 /// RAP1B / RFU, RFX7 / Fold change vs veh, RFX7 / RFU, GTPBP10 / Fold change vs veh, GTPBP10 / RFU, CNEP1R1 / Fold change vs veh, CNEP1R1 / RFU, BIVM-ERCC5 /// ERCC5 / Fold change vs veh, BIVM-ERCC5 /// ERCC5 / RFU, ILF3 / Fold change vs veh, ILF3 / RFU 11762660_at / Fold change /veh 11762660_at / RFU VCAN (11757783_s_at) / Fold change /veh VCAN (11757783_s_at) / RFU DDX43 (11728927_at) / Fold change /veh DDX43 (11728927_at) / RFU KRT8 (11758188_x_at) / Fold change /veh KRT8 (11758188_x_at) / RFU NKD1 (11759106_at) / Fold change /veh NKD1 (11759106_at) / RFU SRD5A1 (11742802_a_at) / Fold change /veh SRD5A1 (11742802_a_at) / RFU TPSAB1 /// TPSB2 (11721975_s_at) / Fold change /veh TPSAB1 /// TPSB2 (11721975_s_at) / RFU GSTM3 (11746129_a_at) / Fold change /veh GSTM3 (11746129_a_at) / RFU IL23R (11737362_x_at) / Fold change /veh IL23R (11737362_x_at) / RFU TMEM51 (11727254_a_at) / Fold change /veh TMEM51 (11727254_a_at) / RFU PIWIL2 (11732686_x_at) / Fold change /veh PIWIL2 (11732686_x_at) / RFU ORM1 (11744905_x_at) / Fold change /veh ORM1 (11744905_x_at) / RFU CCDC152 (11743942_at) / Fold change /veh CCDC152 (11743942_at) / RFU ECM1 (11717891_a_at) / Fold change /veh ECM1 (11717891_a_at) / RFU IL23R (11748794_a_at) / Fold change /veh IL23R (11748794_a_at) / RFU TNFAIP8L3 (11732012_x_at) / Fold change /veh TNFAIP8L3 (11732012_x_at) / RFU MBOAT4 (11741988_at) / Fold change /veh MBOAT4 (11741988_at) / RFU 11764193_at / Fold change /veh 11764193_at / RFU TMEM53 (11763286_at) / Fold change /veh TMEM53 (11763286_at) / RFU MAGEB2 (11727129_at) / Fold change /veh MAGEB2 (11727129_at) / RFU TMEM200A (11744735_a_at) / Fold change /veh TMEM200A (11744735_a_at) / RFU CCDC152 (11751479_a_at) / Fold change /veh CCDC152 (11751479_a_at) / RFU FAM211A (11726209_a_at) / Fold change /veh FAM211A (11726209_a_at) / RFU RGS16 (11746705_a_at) / Fold change /veh RGS16 (11746705_a_at) / RFU VCAN (11755009_s_at) / Fold change /veh VCAN (11755009_s_at) / RFU RHOB (11743442_s_at) / Fold change /veh RHOB (11743442_s_at) / RFU RGS16 (11720943_a_at) / Fold change /veh RGS16 (11720943_a_at) / RFU RGS16 (11720944_at) / Fold change /veh RGS16 (11720944_at) / RFU, VPS4B / Fold change vs veh, VPS4B / RFU, CREB1 / Fold change vs veh, CREB1 / RFU, DNAJC13 / Fold change vs veh, DNAJC13 / RFU, GNAQ / Fold change vs veh, GNAQ / RFU, CDK5R1 / Fold change vs veh, CDK5R1 / RFU, ZRANB3 / Fold change vs veh, ZRANB3 / RFU, CUL4A / Fold change vs veh, CUL4A / RFU, CCNY / Fold change vs veh, CCNY / RFU, UFL1 / Fold change vs veh, UFL1 / RFU, COG3 / Fold change vs veh, COG3 / RFU, DIAPH2 / Fold change vs veh, DIAPH2 / RFU, SKA2 / Fold change vs veh, SKA2 / RFU, AFF3 / Fold change vs veh, AFF3 / RFU, LMF1 / Fold change vs veh, LMF1 / RFU, IPO11 / Fold change vs veh, IPO11 / RFU, DFFB / Fold change vs veh, DFFB / RFU, FOXP1 / Fold change vs veh, FOXP1 / RFU, CARD8 / Fold change vs veh, CARD8 / RFU, STRN3 / Fold change vs veh, STRN3 / RFU, ADK / Fold change vs veh, ADK / RFU, RASSF2 / Fold change vs veh, RASSF2 / RFU, WIPF1 / Fold change vs veh, WIPF1 / RFU, LARP1B / Fold change vs veh, LARP1B / RFU, RASA1 / Fold change vs veh, RASA1 / RFU, RB1 / Fold change vs veh, RB1 / RFU, PPFIA1 / Fold change vs veh, PPFIA1 / RFU, MAT2A / Fold change vs veh, MAT2A / RFU, CCT5 / Fold change vs veh, CCT5 / RFU, WDR92 / Fold change vs veh, WDR92 / RFU, CUX1 / Fold change vs veh, CUX1 / RFU, TTC7A / Fold change vs veh, TTC7A / RFU, TMEM135 / Fold change vs veh, TMEM135 / RFU, DEPTOR / Fold change vs veh, DEPTOR / RFU, CPM / Fold change vs veh, CPM / RFU, DNAJB6 / Fold change vs veh, DNAJB6 / RFU, CACNA2D3 / Fold change vs veh, CACNA2D3 / RFU, DTX4 / Fold change vs veh, DTX4 / RFU, TFCP2 / Fold change vs veh, TFCP2 / RFU, GMCL1 /// GMCL1P1 / Fold change vs veh, GMCL1 /// GMCL1P1 / RFU, AEBP2 / Fold change vs veh, AEBP2 / RFU, SNHG1 /// SNORD22 /// SNORD25 /// SNORD26 /// SNORD27 /// SNORD28 /// SNORD29 /// SNORD31 / Fold change vs veh, SNHG1 /// SNORD22 /// SNORD25 /// SNORD26 /// SNORD27 /// SNORD28 /// SNORD29 /// SNORD31 / Fold change (Aza/veh), C12orf56 (ProbeSet 11735607_a_at) / Fold change (ACY-1035/veh), C12orf56 (ProbeSet 11735607_a_at) / Fold change (Aza/veh), FGFR1OP (ProbeSet 11751329_s_at) / Fold change (ACY-1035/veh), FGFR1OP (ProbeSet 11751329_s_at) / Fold change (Aza/veh), VPS36 (ProbeSet 11739960_a_at) / Fold change (ACY-1035/veh), VPS36 (ProbeSet 11739960_a_at) / RFU SYPL1 (11715823_x_at) / Fold change /veh SYPL1 (11715823_x_at) / RFU IGFBP7 (11715501_s_at) / Fold change /veh IGFBP7 (11715501_s_at) / RFU REEP3 (11722064_at) / Fold change /veh REEP3 (11722064_at) / RFU IGLL1 (11728026_x_at) / Fold change /veh IGLL1 (11728026_x_at): dose or concentration left out as unconfirmed
Settings: MV-4-11 cells, 48 hours

Nc1ccc(-c2cccs2)cc1NC(=O)c1ccc2c(c1)cc(C1CC1)n2CCN1CCOCC1 [ACY-1035]
RFU 11764193_at: 28.66 RFU
